Laboratory results published in patent publication US20050032124A1, “Identification of genotype-selective agents for treating Huntington's disease” (priority 2003, published 2005).

Legend:
Type in all cases: cell-based, human
BJ primary cells [1] = assay: Calcein AM viability assay, dilution-series retest; details: BJ cells; 16-point two-fold dilution; two days
From the text: (§1) Described here is work carried out to identify compounds with increased potency or activity in the presence of hTERT, LT, ST, E6, E7 or RAS^V12. Engineered cell lines with these genetic elements were used to screen […] compounds, including 20,000 compounds from a combinatorial library, 1,990 compounds from the National Cancer Institute diversity collection, and 1,540 biologically active known compounds that were selected and purchased by Applicant and formatted into a screenable collection. The primary screen tested (in quadruplicate) the effect of treating tumorigenic BJ-TERT/LT/ST/RAS^V12 engineered tumorigenic cells with each compound for 48 hours at a concentration of 4 μg/mL, corresponding to 10 μM for a compound with a molecular weight of 400, which is the approximate median molecular weight of the libraries. Cell viability was measured using the dye calcein acetoxymethyl ester (calcein AM) (Wang et al., 1993, Hum. Immunol. 3 7, 264-270), which is a non-fluorescent compound that freely diffuses into cells. In live cells, calcein AM is cleaved by intracellular esterases, forming the anionic fluorescent derivative calcein, which cannot diffuse out of live cells. […] The IC50 value (concentration required to inhibit 50% of the calcein AM signal) was calculated for each compound in each cell line (Table 1). […] Following is a more detailed analysis of these nine compounds.
(§2) Calcein acetoxylmethyl ester (AM) is a cell membrane-permeable, non-fluorescent compound that is cleaved by intracellular esterases to form the anionic, cell-impermeable, fluorescent compound calcein. Viable cells are stained by calcein because of the presence of intracellular esterases and because the intact plasma membrane prevents fluorescent calcein from leaking out of cells (Wang et al., 1993, supra). Cells were seeded in 384-well plates using a Zymark Sciclone ALH, treated with each compound in triplicate at 4 μg/mL in the primary screen for two days, washed with phosphate-buffered saline on a Packard Minitrak with a 384-well washer and incubated for four hours with 0.7 μg/mL calcein (Molecular Probes). Total fluorescence intensity in each well was recorded on a Packard Fusion platereader, and converted to a percent inhibition of signal by subtracting the instrument background and dividing by the average signal obtained when cells were not treated with any compound.
(§3) Replica daughter plates were prepared with a Zymark Sciclone ALH and integrated Twister II by diluting stock plates 50 fold in medium lacking serum and pen/strep to obtain a compound concentration in daughter plates of 80 μg/ml with 2% DMSO. Assay plates were prepared by seeding cells in black, clear bottom 384-well plates in columns 1-23 (6000 cells/well in 57 μl) using a syringe bulk dispenser. Columns 3-22 were treated with compounds from a daughter library plate by transferring 3 μl from the daughter library plate using 384-position fixed cannula array. The final compound concentrations in assay plates were thus 4 μg/ml. The assay plates were incubated for 48 hours at 37° C. in humidified incubator containing 5% CO2. Plate processing for the calcein AM viability assay was performed using an integrated Minitrak/Sidetrak robotic system from Packard Bioscience (Perkin Elmer). Assay plates were washed with phosphate buffered saline, and 20 μl of calcein AM (0.7 μg/ml) per well was added. Plates were incubated at room temperature for 4 hours. Fluorescence intensity was determined using a Fusion platereader with filters centered on an excitation of 485 nm and an emission of 535 nm.
(§4) Compounds to be retested were purchased from manufacturers. Stocks were prepared in DMSO at a concentration of 1 mg/ml in 384-well polypropylene plates with a 16-point, two-fold dilution dose curve of each compound in a column, in duplicates. Column 1-2 and 23-24 were left empty for controls. […]

[2] = system: BJ-TERT/LT/RAS^V12/ST cells; assay: Calcein AM viability assay, dilution-series retest; details: BJ-TERT/LT/Ras^V12/ST cells; 16-point two-fold dilution; two days
From the text: as §1, §2, §3, §4

BJ-TERT/LT/ST cells = assay: Calcein AM viability assay, dilution-series retest; details: BJ-TERT/LT/ST cells; 16-point two-fold dilution; two days
From the text: as §1, §2, §3, §4

[3] = system: BJ-TERT/LT/ST/RAS^V12 tumorigenic cells; assay: Calcein AM viability assay, dilution-series retest
Protocol: Described here is work carried out to identify compounds with increased potency or activity in the presence of hTERT, LT, ST, E6, E7 or RAS^V12. […] The primary screen tested (in quadruplicate) the effect of treating tumorigenic BJ-TERT/LT/ST/RAS^V12 engineered tumorigenic cells with each compound for 48 hours at a concentration of 4 μg/mL, corresponding to 10 μM for a compound with a molecular weight of 400, which is the approximate median molecular weight of the libraries. Cell viability was measured using the dye calcein acetoxymethyl ester (calcein AM) (Wang et al., 1993, Hum. Immunol. 3 7, 264-270), which is a non-fluorescent compound that freely diffuses into cells. In live cells, calcein AM is cleaved by intracellular esterases, forming the anionic fluorescent derivative calcein, which cannot diffuse out of live cells. […] The IC50 value (concentration required to inhibit 50% of the calcein AM signal) was calculated for each compound in each cell line (Table 1).
as §2, §3
(§5) Compounds to be retested were purchased from manufacturers. Stocks were prepared in DMSO at a concentration of 1 mg/ml in 384-well polypropylene plates with a 16-point, two-fold dilution dose curve of each compound in a column, in duplicates. Column 1-2 and 23-24 were left empty for controls. Daughter retest plates were prepared from stock retest plate by diluting 66.6 fold in DMEM in 384-well deep-deep well plates (4.5 μl transfer into 300 μl). Cells were seeded at a density of 6000 per well in 40 μl, and 20 μl was added from a daughter retest plate. The plates were incubated for two days at 37° C. with 5% CO2.

TIP5/TERT cells = assay: Calcein AM viability assay, dilution-series retest; details: TIP5-TERT cells; 16-point two-fold dilution; two days
From the text: (§6) In a third series, cell lines derived from independently prepared human TIP5 foreskin fibroblasts created by introducing cDNA constructs encoding hTERT, LT, ST and RASV12 (Lessnick et al., 2002, Cancer Cell 1, 393-401) were used. These cell lines were called, respectively: TIP5/TERT, TIP5/TERT/LT, TIP5/TERT/LT/ST, and TIP5/TERT/LT/ST/RAS^V12. In a fourth series, cell lines derived from TIP5 fibroblasts created by introducing cDNA constructs encoding hTERT, E6, E7, ST and RAS^V12 were used. These cell lines were named, respectively: TIP5/TERT/E6, TIP5/TERT/E6/E7, TIP5/TERT/E6/E7/ST, and TIP5/TERT/E6/E7/ST/RAS^V12. In this series, HPV E6 and E7, which inactivate p53 and RB, respectively, serve a similar function as LT in the previous series. However, by using HPV E6 and E7, Applicants were able to observe the effects of inactivating, separately and independently, p53 and RB. Results of a large-scale screen for compounds that display selective killing of these engineered tumorigenic cell lines are described in the examples that follow.
as §2, §3, §5
(§7) Mean RFU (relative fluorescence units) for untreated cells was calculated by averaging columns 1, 2, and 23 (wells with cells but lacking compounds). […]

TIP5/TERT/E6/E7 cells = assay: Calcein AM viability assay, dilution-series retest; details: TIP5-TERT/E6E7 cells; 16-point two-fold dilution; two days
From the text: as §6, §2, §3, §5, §7

TIP5/TERT/E6/E7/ST cells = assay: Calcein AM viability assay, dilution-series retest; details: TIP5-TERT/E6E7/ST cells; 16-point two-fold dilution; two days
From the text: as §6, §2, §3, §5, §7

[4] = system: TIP5/TERT/E6/E7/ST/RAS^V12 cells; assay: Calcein AM viability assay, dilution-series retest; details: TIP5-TERT/E6E7/ST/Ras^V12 cells; 16-point two-fold dilution; two days
From the text: as §6, §2, §3, §5, §7

TIP5/TERT/LT cells = assay: Calcein AM viability assay, dilution-series retest; details: TIP5 TERT/LT cells; 16-point two-fold dilution; two days
From the text: as §6, §2, §3, §5, §7

[5] = system: TIP5/TERT/LT/ST/RAS^V12 cells; assay: Calcein AM viability assay, dilution-series retest; details: TIP5 TERT/LT/ST/Ras^V12 cells; 16-point two-fold dilution; two days
From the text: as §6, §2, §3, §5, §7

BJ primary cells [6] = assay: Sensitization of primary cells by co-treatment, calcein AM viability staining; details: BJ (or BJ-TERT) cells; simultaneous treatment
From the text: (A-C) Western blot of lysates from BJ, BJ-TERT, BJ-TERT/LT/ST, BJ-TERT/LT/ST/RAS^V12, BJ-TERT/LT/RAS^V12 and BJ-TERT/LT/RAS^V12/ST cells with an antibody directed against topoisomerase II (A) or TOPI (B, C). In panel (C), cells were transfected with an siRNA directed against TOPI, lamic A/C or with a control double strand DNA duplex of the same length (TOPI dsDNA). In each case, the blot was probed with an antibody against eIF-4E to identify differences in the amount of protein loaded. The relative amount is quantitated below each band. […] Cell number was determined after transfection with an siRNA directed against TOPI and treatment with the indicated concentrations of camptothecin. (E) Okadaic acid, an inhibitor of PP2A and other cellular phosphatases, sensitizes primary human cells to camptothecin. BJ primary cells were treated simultaneously with the indicated concentrations of both camptothecin and okadaic acid and the effect on calcein AM viability staining was determined. […] BJ primary cells were treated with the indicated concentrations of okadaic acid and the expression level of TOPI was determined by western blot. The relative amount is quantitated below each band.
The compounds in group (iii) are camptothecin (CPT) and a novel compound from a combinatorial library, which Applicants have named erastin, for eradicator of RAS and ST-expressing cells (FIG. 2). Efficient CPT-induced and erastin-induced cell death requires the presence of both ST and RAS^V12 (FIGS. 3 and 4 and Table 1). Although CPT and erastin have a similar genetic basis of selectivity, they have distinct mechanisms of action. […] The phosphatase inhibitor okadaic acid was capable of sensitizing otherwise resistant BJ primary cells to CPT (FIG. 5E), possibly because okadaic acid upregulates TOPI (FIG. 5F).

SMILES: Cc1c2ccccc2c(CSC(=N)N)c2ccccc12.Cl [NSC146109]
- concentration required to achieve 50% inhibition of calcein AM staining (IC50), BJ (BJ primary cells [1]): >5 µg/mL
- IC50, BJ-TERT/LT/Ras^V12/ST [2]: 2.5 µg/mL
- IC50, BJ-TERT/LT/ST (BJ-TERT/LT/ST cells): 2.5 µg/mL
- IC50, BJ-TERT/LT/ST/Ras^V12 ([3]; BJ-TERT/LT/ST/Ras^V12 cells, 16-point two-fold dilution, two days): 2.5 µg/mL
- Tumor Selectivity ([3]; IC50 in primary BJ cells divided by IC50 in BJ-TERT/LT/ST/RAS^V12 tumorigenic cells): >4
- IC50, TIP5-TERT (TIP5/TERT cells): >5 µg/mL
- IC50, TIP5-TERT/E6E7 (TIP5/TERT/E6/E7 cells): 2.5 µg/mL
- IC50, TIP5-TERT/E6E7 ST (TIP5/TERT/E6/E7/ST cells): 2.5 µg/mL
- IC50, TIP5-TERT/E6E7 ST/Ras^V12 [4]: 2.5 µg/mL
- IC50, TIP5 TERT/LT (TIP5/TERT/LT cells): >5 µg/mL
- IC50, TIP5 TERT/LT/ST/Ras^V12 [5]: 2.5 µg/mL

SMILES: COc1cc([C@@H]2c3cc4c(cc3[C@H](O)[C@H]3COC(=O)[C@H]23)OCO4)cc(OC)c1OC [podophyllotoxin]
- sensitization of cells to camptothecin (BJ primary cells [6]): does not sensitize BJ or BJ-TERT cells to CPT
